Where two headings read alike, the source gives them in different places.
Assays:
[1] = test system: coagulation behavior of blood; assay: clotting time of patients dialysed with citric acid dialysate; type: in vivo; conditions: 2.4 mEq/L of citric acid in dialysate; beyond that achieved with heparin

SMILES	increase in patient's clotting time [1]	buffering action (bicarbonate concentrate solutions of 8.1<pH<8.3)	buffering action (bicarbonate concentrate solutions with a pH of <8.0)
O=C(O)CC(O)(CC(=O)O)C(=O)O [citric acid, Citric acid]	no measurable increase	–	–
CC(=O)[O-].[Na+] [sodium acetate]	–	evident	not apparent
